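The compound was tested at five concentrations on cells cultured in 96-well plates, with a 48-hour exposure period. TGI: total growth inhibition.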
Tests used:
Test in all cases: growth of human tumour cells (NCI), 48 h
[1] = tested on: A549 NSCLC
[2] = tested on: ACHN renal
[3] = tested on: CCRF-CEM leukemia
[4] = tested on: COLO 205 colon
[5] = tested on: DMS 114 small cell lung
[6] = tested on: DMS 273 small cell lung
[7] = tested on: EKVX NSCLC
[8] = tested on: HCC-2998 colon
[9] = tested on: HCT-116 colon
[10] = tested on: HCT-15 colon
[11] = tested on: HL-60(TB) leukemia
[12] = tested on: HOP-18 NSCLC
[13] = tested on: HOP-62 NSCLC
[14] = tested on: HOP-92 NSCLC
[15] = tested on: HT29 colon
[16] = tested on: IGROV1 ovarian
[17] = tested on: K-562 leukemia
[18] = tested on: KM12 colon
[19] = tested on: KM20L2 colon
[20] = tested on: LOX IMVI melanoma
[21] = tested on: LXFL 529 NSCLC
[22] = tested on: M14 melanoma
[23] = tested on: M19-MEL melanoma
[24] = tested on: MOLT-4 leukemia
[25] = tested on: NCI-H23 lung
[26] = tested on: NCI-H460 lung
[27] = tested on: OVCAR-3 ovarian
[28] = tested on: OVCAR-4 ovarian
[29] = tested on: OVCAR-5 ovarian
[30] = tested on: OVCAR-8 ovarian
[31] = tested on: RPMI-8226 leukemia
[32] = tested on: RXF 393 renal
[33] = tested on: SF-268 CNS
[34] = tested on: SF-539 CNS
[35] = tested on: SK-MEL-2 melanoma
[36] = tested on: SK-MEL-28 melanoma
[37] = tested on: SK-MEL-5 melanoma
[38] = tested on: SN12C renal
[39] = tested on: SNB-19 CNS
[40] = tested on: SNB-75 CNS
[41] = tested on: SNB-78 CNS
[42] = tested on: SR leukemia
[43] = tested on: SW-620 colon
[44] = tested on: TK-10 renal
[45] = tested on: U251 CNS
[46] = tested on: UACC-257 melanoma
[47] = tested on: UACC-62 melanoma
[48] = tested on: UO-31 renal
[49] = tested on: 786-0 renal
[50] = tested on: A498 renal
[51] = tested on: CAKI-1 renal
[52] = tested on: DLD-1 colon
[53] = tested on: MALME-3M melanoma
[54] = tested on: NCI-H226 lung
[55] = tested on: NCI-H522 lung
[56] = tested on: SF-295 CNS
[57] = tested on: SK-OV-3 ovarian
[58] = tested on: XF 498 CNS

Measured: TGI

COc1ccc(-c2nnc3c4ccccc4sn23)cc1
82.5 µM: [32]
61.5 µM: [27]
93.8 µM: [5]
87.3 µM: [40]
33.7 µM: [3]
> 100 µM: [1] | [2] | [4] | [6] | [7] | [8] | [9] | [10] | [13] | [14] | [15] | [16] | [17] | [18] | [19] | [20] | [21] | [22] | [23] | [24] | [25] | [26] | [28] | [29] | [30] | [31] | [33] | [34] | [35] | [36] | [37] | [38] | [39] | [41] | [42] | [43] | [44] | [45] | [47]
73.8 µM: [46]
83.9 µM: [12]
80.5 µM: [48]
45.4 µM: [11]

O=C(Cc1c(C(=O)Nc2ccccc2)sc(C(=O)Nc2ccccc2)c1CC(=O)Nc1ccccc1)Nc1ccccc1
> 100 µM: [49] | [50] | [1] | [2] | [51] | [3] | [4] | [52] | [5] | [6] | [7] | [8] | [9] | [11] | [12] | [13] | [14] | [15] | [16] | [17] | [18] | [19] | [20] | [21] | [22] | [23] | [53] | [54] | [25] | [26] | [55] | [27] | [28] | [29] | [30] | [31] | [32] | [56] | [34] | [37] | [57] | [38] | [39] | [40] | [41] | [43] | [44] | [45] | [46] | [47] | [48] | [58]
13.7 µM: [33]
19.8 µM: [36]

Cc1ccc(C)c(N2C(=O)C(=O)C(c3nc4ccccc4s3)C(=O)C2=O)c1
> 100 µM: [49] | [50] | [1] | [2] | [51] | [3] | [4] | [52] | [5] | [6] | [7] | [8] | [9] | [10] | [11] | [13] | [14] | [15] | [16] | [17] | [18] | [19] | [20] | [21] | [22] | [23] | [53] | [24] | [54] | [25] | [26] | [55] | [27] | [28] | [29] | [30] | [31] | [32] | [33] | [56] | [34] | [35] | [36] | [37] | [57] | [38] | [39] | [40] | [41] | [43] | [44] | [45] | [46] | [47] | [48]

CC1OC(n2ccc3ccc([N+](=O)[O-])cc32)C(O)C(O)C1O (stereo not drawn)
> 100 µM: [49] | [50] | [1] | [2] | [51] | [3] | [4] | [52] | [5] | [6] | [7] | [9] | [10] | [11] | [13] | [14] | [15] | [16] | [17] | [18] | [19] | [20] | [21] | [22] | [23] | [53] | [24] | [54] | [25] | [26] | [55] | [27] | [28] | [29] | [30] | [31] | [32] | [33] | [56] | [34] | [35] | [36] | [37] | [57] | [38] | [39] | [40] | [41] | [42] | [43] | [44] | [45] | [46] | [47] | [48] | [58]

Source: PubChem BioAssay (NCI)
